According to PMC9454942, “Novel AR/AR-V7 and Mnk1/2 Degrader, VNPP433-3β: Molecular Mechanisms of Action and Efficacy in AR-Overexpressing Castration Resistant Prostate Cancer In Vitro and In Vivo Models” (Cells, 2022):

Target: T1, androgen receptor (AR) ligand binding domain (Homo sapiens, UniProt P10275)
T1 construct: recombinant human AR LBD
T1 sequence (P10275 669-920 limits assumed): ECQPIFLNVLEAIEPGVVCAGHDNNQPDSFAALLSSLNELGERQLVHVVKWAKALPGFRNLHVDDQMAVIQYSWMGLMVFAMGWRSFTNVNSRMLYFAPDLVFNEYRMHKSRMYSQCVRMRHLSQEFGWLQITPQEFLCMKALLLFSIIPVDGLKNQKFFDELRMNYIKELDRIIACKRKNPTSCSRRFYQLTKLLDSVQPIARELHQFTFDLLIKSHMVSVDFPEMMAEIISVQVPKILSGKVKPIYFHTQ
Test: fluorescence spectroscopy titration with purified AR LBD; supported by CETSA in LNCaP cells

With C[C@]12CC[C@H](n3ccnc3)CC1=CC[C@@H]1[C@@H]2CC[C@]2(C)C(n3cnc4ccccc43)=CC[C@@H]12 [VNPP433-3β] the Kd was 360 ± 30 nM.
